Results from patent US4552879A, “Benzoheterocyclic compounds and pharmaceutical composition thereof” (Otsuka Pharmaceutical Co., Ltd., priority 1980, dated 1985).
≈ marks a conversion by molar mass, not a printed value. Like-named read-outs stand apart in the source and are kept apart here.

Legend:
Type in all cases: cell-based
[1] = system: Pseudomonas aeruginosa E-2; assay: Minimum inhibitory concentration, serial dilution method on agar plate; details: Pseudomonas aeruginosa, read-out: Minimum Inhibitory Concentration
[2] = system: Staphylococcus epidermidis IFO 3762; assay: as above
Sarcina lutea PCI 1001 = assay: as above
Klebsiella pneumoniae = assay: as above; details: read-out: Minimum Inhibitory Concentration
Bacillus anthracis = assay: microbe, parasite or virus in culture
[3] = system: Bacillus subtilis PCI 219; assay: Minimum inhibitory concentration, serial dilution method on agar plate
[4] = system: Peptococcus asaccharolyticus WAL 3218; assay: as above; details: Peptoniphilus asaccharolyticus
[5] = system: Staphylococcus aureus IFO 3060; assay: as above
[6] = system: Staphylococcus aureus B-5; assay: as above
[7] = system: Staphylococcus aureus FDA 209 P; assay: as above; details: Staphylococcus aureus, read-out: Minimum Inhibitory Concentration
[8] = system: Staphylococcus aureus Newmann; assay: as above
[9] = system: Micrococcus luteus ATCC 4698; assay: as above
[10] = system: Bacteroides thetaiotaomicron WAL 2926; assay: as above
[11] = system: Staphylococcus aureus B-70; assay: as above
[12] = system: Micrococcus lysodeikticus IAM 1313; assay: as above; details: Micrococcus luteus
[13] = system: Staphylococcus aureus 50774; assay: as above
[14] = system: Staphyloccus aureus Smith; assay: as above
[15] = system: Pseudomonas aeruginosa ATCC 10145; assay: as above; details: Pseudomonas aeruginosa, read-out: Minimum Inhibitory Concentration
[16] = system: Staphylococcus aureus 7447; assay: as above
[17] = system: Staphylococcus aureus E-46; assay: as above
[18] = system: Staphylococcus epidermidis ATCC 12228; assay: as above
[19] = system: Bacillus pumilus IFO 3813; assay: as above
[20] = system: Bacillus cereus ATCC 11778; assay: as above
[21] = system: Salmonella typhi 0-901 (NCTC 8393); assay: as above; details: Salmonella enterica
[22] = system: Staphylococcus aureus No. 80; assay: as above
[23] = system: Staphylococcus aureus IFO 3761; assay: as above
[24] = system: Streptococcus pyogenes IID S-23; assay: as above; details: Streptococcus pyogenes, read-out: Minimum Inhibitory Concentration
[25] = system: Staphylococcus aureus ATCC 12692; assay: as above
[26] = system: Staphylococcus aureus 90124; assay: as above
[27] = system: Bacillus circuluns ATCC 8241; assay: as above
Pseudomonas putida 12996 = assay: as above; details: read-out: Minimum Inhibitory Concentration
Bacillus cereus IFO 3446 = assay: as above
[28] = system: Corynebacterium diphteriae; assay: as above
Proteus rettgeri NIH 96 = assay: as above; details: Providencia rettgeri

CC1CCc2c(N3CCC(O)CC3)c(F)cc3c(=O)c(C(=O)O)cn1c23 (centres unmarked) [Compound 1, 9-Fluoro-8-(4-hydroxy-1-piperidyl)-5-methyl-6,7-dihydro-1-oxo-1H,5H-benzo[ij]quinolizine-2-carboxylic acid]
MIC ([1]; E2, 1×10^6 cells/ml): 6.25 µg/mL (≈ 17.3 µM) | MIC ([1]; E2, 1×10^8 cells/ml): 6.25 µg/mL (≈ 17.3 µM) | MIC ([2]; IFO3762, 1×10^6 cells/ml): 0.2 µg/mL (≈ 0.555 µM) | MIC ([2]; IFO3762, 1×10^8 cells/ml): 0.39 µg/mL (≈ 1.08 µM) | Minimum Inhibitory Concentration (Sarcina lutea PCI 1001; 1×10^6 cells/ml): 0.39 µg/mL | MIC (Sarcina lutea PCI 1001; Micrococcus luteus, PCI1001, 1×10^8 cells/ml): 0.39 µg/mL (≈ 1.08 µM) | MIC (Klebsiella pneumoniae; 1×10^6 cells/ml): 0.39 µg/mL (≈ 1.08 µM) | MIC (Klebsiella pneumoniae; 1×10^8 cells/ml): 0.39 µg/mL (≈ 1.08 µM) | Minimum Inhibitory Concentration (Bacillus anthracis; 1×10^6 cells/ml): 0.05 µg/mL | MIC (Bacillus anthracis; Bacillus anthracis, read-out: Minimum Inhibitory Concentration): 0.05 µg/mL (≈ 0.139 µM) | Minimum Inhibitory Concentration ([3]; 1×10^6 cells/ml): 0.024 µg/mL | MIC ([3]; Bacillus subtilis, PCI219, 1×10^8 cells/ml): 0.024 µg/mL (≈ 0.0666 µM) | MIC ([4]; WAL3218, 1×10^6 cells/ml): 0.78 µg/mL (≈ 2.16 µM) | MIC ([4]; WAL3218, 1×10^8 cells/ml): 1.56 µg/mL (≈ 4.33 µM) | MIC ([5]; IFO3060, 1×10^6 cells/ml): 0.05 µg/mL (≈ 0.139 µM) | MIC ([5]; IFO3060, 1×10^8 cells/ml): 0.1 µg/mL (≈ 0.277 µM) | Minimum Inhibitory Concentration ([6]; 1×10^6 cells/ml): 0.024 µg/mL | MIC ([6]; Staphylococcus aureus, B5, 1×10^8 cells/ml): 0.024 µg/mL (≈ 0.0666 µM) | MIC ([7]; FDA209, 1×10^6 cells/ml): ≤ 0.025 µg/mL | MIC ([7]; FDA209, 1×10^8 cells/ml): ≤ 0.05 µg/mL | MIC ([8]; 1×10^6 cells/ml): 0.024 µg/mL (≈ 0.0666 µM) | MIC ([8]; 1×10^8 cells/ml): 0.05 µg/mL (≈ 0.139 µM) | MIC ([9]; ATCC4698, 1×10^6 cells/ml): 0.1 µg/mL (≈ 0.277 µM) | MIC ([9]; ATCC4698, 1×10^8 cells/ml): 0.2 µg/mL (≈ 0.555 µM) | MIC ([10]; WAL2926, 1×10^6 cells/ml): 1.56 µg/mL (≈ 4.33 µM) | MIC ([10]; WAL2926, 1×10^8 cells/ml): 6.25 µg/mL (≈ 17.3 µM) | MIC ([11]; B70, 1×10^6 cells/ml): 0.024 µg/mL (≈ 0.0666 µM) | MIC ([11]; B70, 1×10^8 cells/ml): 0.05 µg/mL (≈ 0.139 µM) | MIC ([12]; IAM1313, 1×10^6 cells/ml): 0.1 µg/mL (≈ 0.277 µM) | MIC ([12]; IAM1313, 1×10^8 cells/ml): 0.2 µg/mL (≈ 0.555 µM) | Minimum Inhibitory Concentration ([13]; 1×10^6 cells/ml): 0.05 µg/mL | MIC ([13]; Staphylococcus aureus, 50774, 1×10^8 cells/ml): 0.05 µg/mL (≈ 0.139 µM) | Minimum Inhibitory Concentration ([14]; 1×10^6 cells/ml): 0.05 µg/mL | MIC ([14]; 1×10^8 cells/ml): 0.05 µg/mL (≈ 0.139 µM) | MIC ([15]; ATCC10145, 1×10^6 cells/ml): 3.13 µg/mL (≈ 8.69 µM) | MIC ([15]; ATCC10145, 1×10^8 cells/ml): 3.13 µg/mL (≈ 8.69 µM) | Minimum Inhibitory Concentration ([16]; 1×10^6 cells/ml): 0.05 µg/mL | MIC ([16]; Staphylococcus aureus, 7447, 1×10^8 cells/ml): 0.05 µg/mL (≈ 0.139 µM) | Minimum Inhibitory Concentration ([17]; 1×10^6 cells/ml): 0.05 µg/mL | MIC ([17]; Staphylococcus aureus, E46, 1×10^8 cells/ml): 0.05 µg/mL (≈ 0.139 µM) | Minimum Inhibitory Concentration ([18]; 1×10^6 cells/ml): 0.05 µg/mL | MIC ([18]; Staphylococcus epidermidis, ATCC12228, 1×10^8 cells/ml): 0.05 µg/mL (≈ 0.139 µM) | Minimum Inhibitory Concentration ([19]; 1×10^6 cells/ml): 0.024 µg/mL | MIC ([19]; Bacillus pumilus, IFO3813, 1×10^8 cells/ml): 0.024 µg/mL (≈ 0.0666 µM) | Minimum Inhibitory Concentration ([20]; 1×10^6 cells/ml): 0.10 µg/mL | MIC ([20]; Bacillus cereus, ATCC11778, 1×10^8 cells/ml): 0.1 µg/mL (≈ 0.277 µM) | MIC ([21]; read-out: Minimum Inhibitory Concentration, 1×10^6 cells/ml): 0.05 µg/mL (≈ 0.139 µM) | MIC ([21]; read-out: Minimum Inhibitory Concentration, 1×10^8 cells/ml): 0.1 µg/mL (≈ 0.277 µM) | MIC ([22]; NO.80, 1×10^6 cells/ml): 0.024 µg/mL (≈ 0.0666 µM) | MIC ([22]; NO.80, 1×10^8 cells/ml): 0.05 µg/mL (≈ 0.139 µM) | MIC ([23]; IFO3761, 1×10^6 cells/ml): 0.024 µg/mL (≈ 0.0666 µM) | MIC ([23]; IFO3761, 1×10^8 cells/ml): 0.1 µg/mL (≈ 0.277 µM) | MIC ([24]; IIDS23, 1×10^6 cells/ml): 0.39 µg/mL (≈ 1.08 µM) | MIC ([24]; IIDS23, 1×10^8 cells/ml): 0.78 µg/mL (≈ 2.16 µM) | Minimum Inhibitory Concentration ([25]; 1×10^6 cells/ml): 0.05 µg/mL | MIC ([25]; Staphylococcus aureus, ATCC12692, 1×10^8 cells/ml): 0.05 µg/mL (≈ 0.139 µM) | Minimum Inhibitory Concentration ([26]; 1×10^6 cells/ml): 0.10 µg/mL | MIC ([26]; Staphylococcus aureus, 90124, 1×10^8 cells/ml): 0.1 µg/mL (≈ 0.277 µM) | Minimum Inhibitory Concentration ([27]; 1×10^6 cells/ml): 0.024 µg/mL | MIC ([27]; Bacillus, ATCC8241, 1×10^8 cells/ml): 0.024 µg/mL (≈ 0.0666 µM) | MIC (Pseudomonas putida 12996; Pseudomonas putida, 12996, 1×10^6 cells/ml): 6.25 µg/mL (≈ 17.3 µM) | MIC (Pseudomonas putida 12996; Pseudomonas putida, 12996, 1×10^8 cells/ml): 6.25 µg/mL (≈ 17.3 µM) | Minimum Inhibitory Concentration (Bacillus cereus IFO 3446; 1×10^6 cells/ml): 0.10 µg/mL | MIC (Bacillus cereus IFO 3446; Bacillus cereus, IFO3446, 1×10^8 cells/ml): 0.1 µg/mL (≈ 0.277 µM) | Minimum Inhibitory Concentration ([28]; 1×10^6 cells/ml): 0.05 µg/mL | MIC ([28]; Corynebacterium, 1×10^8 cells/ml): 0.05 µg/mL (≈ 0.139 µM) | MIC (Proteus rettgeri NIH 96; NIH96, read-out: Minimum Inhibitory Concentration, 1×10^6 cells/ml): 0.1 µg/mL (≈ 0.277 µM) | MIC (Proteus rettgeri NIH 96; NIH96, read-out: Minimum Inhibitory Concentration, 1×10^8 cells/ml): 0.2 µg/mL (≈ 0.555 µM)
